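48-hour exposure; five concentrations; linearly interpolated endpoints. TGI marks complete inhibition of growth.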
How the values were obtained:
Experiment in all cases: NCI anticancer screen, dose series, 48 h
[1] = test system: SK-MEL-5 melanoma
[2] = test system: COLO 205 colon
[3] = test system: SW-620 colon
[4] = test system: A498 renal
[5] = test system: 786-0 renal
[6] = test system: MDA-N
[7] = test system: RXF 393 renal
[8] = test system: SF-268 CNS
[9] = test system: SF-295 CNS
[10] = test system: SNB-75 CNS
[11] = test system: SK-OV-3 ovarian

SMILES | TGI [1] [µM] | TGI [2] [µM] | TGI [3] [µM] | TGI [4] [µM] | TGI [5] [µM] | TGI [6] [µM] | TGI [7] [µM] | TGI [8] [µM] | TGI [9] [µM] | TGI [10] [µM] | TGI [11] [µM]
O=c1[nH]nc(Cc2c[nH]c3ccccc23)o1 | > 100 | > 100 | > 100 | > 100 | > 100 | > 100 | > 100 | > 100 | > 100 |  | 
CC1(C)OC(=O)N(c2ccccc2)C12C=Cc1cccc([N+](=O)[O-])c1O2 (stereo unspecified) | > 100 | > 100 | > 100 | > 100 | > 100 | > 100 | > 100 | > 100 | > 100 | > 100 | 76.2
COc1cc(/C=N/n2c(-c3ccccc3)nn(C(C)=O)c2=O)cc(OC)c1OC | 6.68 | 4.55 | > 100 | 23.3 | > 53.1 | 3.83 | > 88.4 | > 100 | 26.9 | 21.1 | > 39.9
COc1ccc(N2C(=O)C3c4[nH]c5ccc(Br)cc5c4C4CCC(C(C)(C)C)CC4C3C2=O)cc1 (stereo unspecified) | > 100 | > 100 | > 100 | > 100 | > 100 | > 100 | > 100 | > 100 | > 100 |  | > 100
Cc1c2c(c(O)c3c(O)cccc13)C(=O)C1(O)C(O)=C(C(=O)NCNc3ccc(C(N)=O)cn3)C(=O)C(N(C)C)C1C2 (stereo unspecified) | 11.2 | > 100 | 42 | 9.33 | > 100 | 98.5 | 20.1 | 79.7 | 17.9 | 9.22 | 8.78
CN(/N=C/c1cccc2cccnc12)c1ccc(Cl)cc1[N+](=O)[O-] | > 100 | > 100 | > 100 | > 100 | > 100 | > 100 | > 100 | > 100 | > 100 | > 100 | > 100
COc1cc(C2c3cc4c(cc3OC(NNS(=O)(=O)c3ccc(C)cc3)C2C)OCO4)cc(OC)c1O (stereo unspecified) | 25 | 43.5 | > 100 | 25.2 | 42.9 | 51.4 | 54 | > 100 | 17.7 | 22.7 | 79.2
COc1cc(NCCC2CCCCN2)c2ncccc2c1 (stereo unspecified) | > 55.4 | 28.6 | > 100 | > 89.6 | > 100 | > 100 | 77 | > 100 | > 100 | > 100 | > 100
NC(=O)NCCCC(NC(=O)OCCCCCCn1ccc(=O)[nH]c1=O)C(=O)O (stereo unspecified) |  | > 100 | > 100 |  | > 100 | > 100 | > 100 | > 100 | > 100 | > 100 | > 100
CC(=O)O[C@H]1CC[C@@]2(C)C(=CC[C@@H]3[C@@H]2CC[C@]2(C)c4c(C)nn(-c5ccccc5)c4C[C@@H]32)C1 | > 100 | 36.2 | > 100 | 52.8 | 35.9 | > 100 | 19.3 | > 100 | 12.9 | 49.9 | 44.5
O=C(c1ccccc1)c1ccc2[nH]c(-c3c(Cl)c(Cl)c(Cl)c(Cl)c3C(=O)N/N=C/c3cccc(Oc4ccccc4)c3)nc2c1 | > 100 | > 100 | > 100 |  | > 100 | > 100 | > 100 | > 100 | > 100 | > 100 | > 100
CCOC(=O)C(Cc1ccc(OC(=O)c2ccc(OC)cc2)cc1)NC(=O)C(F)(F)F (stereo unspecified) | > 100 | > 100 | > 100 | > 100 | > 100 | > 100 | 73.2 | > 100 | > 100 | 46.5 | > 100
CCOC(=O)C1(C(=O)OCC)OC(C)=NC1(C(=O)OC)C(=O)OC | > 100 | > 100 | > 100 | > 100 | > 100 | > 100 | > 100 | > 100 | > 100 | 98.1 | > 100
O=C(O)CCSCc1ccccc1 | > 100 | > 100 | > 100 | > 100 | > 100 | > 100 | > 100 | > 100 | > 100 | > 100 | > 100
CC(=O)OCC1OC(Nn2c(=O)[nH]c3ccccc3c2=O)C(OC(C)=O)C(OC(C)=O)C1OC(C)=O (stereo unspecified) | > 100 | > 100 | > 100 | > 100 | > 100 | > 100 | > 100 | > 100 | > 100 | > 100 | > 100
CC1=C(c2ccccc2)NC(=S)C(C)C(c2ccccc2)=N1 (stereo unspecified) | 82.9 | > 100 | > 100 | > 100 | > 100 | 46.8 | 61.6 | > 100 | > 100 | > 100 | > 100
NC(Cc1ccc(N(CCCl)CCCl)cc1)C(=O)NC(CCC(=O)O)C(=O)O (stereo unspecified) | > 100 | > 100 | > 100 | > 100 | > 100 | > 100 | > 100 | > 100 | > 100 | > 100 | > 100
S=C1CCSc2c(ccc3ccccc23)N1 | > 100 | > 100 |  |  | > 100 | > 100 | > 100 | > 100 | > 100 | > 100 | > 100
Cc1ccc(S(=O)(=O)Oc2nc3ccccc3nc2OS(=O)(=O)c2ccc(C)cc2)cc1 | 56.1 | > 100 | > 100 | > 100 | > 100 | > 100 | > 100 | > 100 | > 100 | > 100 | > 100
